From the SangsterLogP compilation

Assays:
[1] = method code SF-AS, from DOI: 10.1016/0048-3575(89)90091-6
[2] = not given; remark: listed apart in the source
[3] = method code SF, from Zhang, Y. (2010). Determination and Correlation of 1-Octanol/Water Partition Coefficients for Six Quinolones from 293.15 K to 323.15 K. Chemical Research in Chinese Universities, 26(4)636-639.
[4] = method code SF, from DOI: 10.1021/jm9018146, PMID: 20232803; conditions: pH 7.4
[5] = method code SF-RC, from DOI: 10.1007/s00259-007-0645-5, PMID: 18057934; conditions: pH 7.4
[6] = not given; remark: listed apart in the source
[7] = not given; remark: listed apart in the source
[8] = method code SF-RC, from DOI: 10.1515/ract-2013-2119
[9] = method code SF, from Blakemore, C.; Brown, H.; Durant, J.; Emmett, C.; Ganellin, R.; Parsons, E.; Rasmussen, C. (1980). SK&F 92994: a new histamine H2-receptor antagonist. COMMUNICATIONS: Part II. Br. J. Pharmacol., …; conditions: pH 8.5
[10] = method code SF, from DOI: 10.1021/jm00123a006, PMID: 2918500; conditions: pH 7.4
[11] = not given; remark: listed apart in the source
[12] = not given; remark: listed apart in the source
[13] = method code SF-AS, from PMID: 582102; conditions: pH 3.0
[14] = method code SF-HPLC, from DOI: 10.1016/j.bmc.2015.09.009, PMID: 26385444
[15] = method code SF-AS, from DOI: 10.1021/es00127a005
[16] = not given; remark: listed apart in the source
[17] = not given; remark: listed apart in the source
[18] = method code SF-RC, from DOI: 10.1016/j.nucmedbio.2007.04.005, PMID: 17591554; conditions: pH 7.4
[19] = method code SF, from DOI: 10.1016/j.ejps.2014.02.002, PMID: 24530864; conditions: pH 7.4
[20] = method code SF, from DOI: 10.1016/s0223-5234(00)80025-2, PMID: 11278041; conditions: pH 7.4
[21] = method code SF-AS, from Sengupta, C.; Mondal, K. (1986). Partition coefficients of some anticoagulants and coagulants in relation to their biological activity. Indian J Pharm Sci, 48(2)51-52.
[22] = method code SF-HPLC, from DOI: 10.1016/j.bmc.2009.06.014, PMID: 19586774; conditions: pH 7.4
[23] = not given; remark: listed apart in the source
[24] = not given; remark: listed apart in the source
[25] = method code SF-RC, from DOI: 10.1021/jm050166g.s001, PMID: 16162001; conditions: pH 7.4
[26] = not given; remark: listed apart in the source
[27] = method code SF-HPLC, from DOI: 10.1021/jm1007903, PMID: 20828199; conditions: pH 7.4
[28] = not given; remark: listed apart in the source
[29] = method code SF-RC, from DOI: 10.1021/es60172a005, PMID: 22280000
[30] = method code SF, from DOI: 10.1097/00004424-199009001-00048; conditions: pH 7.4
[31] = not given; remark: listed apart in the source
[32] = method code SF-RC, from DOI: 10.1267/nukl06010041, PMID: 16493513; conditions: pH 7.4
[33] = not given; remark: listed apart in the source
[34] = method code SF-RC, from DOI: 10.1016/j.mibio.2003.09.009; conditions: pH 7.4
[35] = method code SF-AS, from PMID: 7306420; conditions: pH 7.5
[36] = method code SF-HPLC, from DOI: 10.1016/0378-5173(94)90060-4; conditions: pH 5.0
[37] = not given; remark: listed apart in the source
[38] = method code SF-RC, from DOI: 10.1111/j.2042-7158.1976.tb04141.x, PMID: 6703
[39] = method code SF-AS, from DOI: 10.3390/molecules16097565, PMID: 21894089
[40] = method code SF-AS, from DOI: 10.1111/j.2042-7158.1989.tb06480.x, PMID: 2570831; conditions: pH 7.4
[41] = method code SF, from DOI: 10.1016/0223-5234(96)89550-x
[42] = method code SF-HPLC, from Gao, X.; Yu, Y.; Wang, Y.; Pi, J.; Zhang, W.; Xiao, X. (2013). Determination of equilibrium solubility and apparent partition coefficient of bakuchiol. West China Journal of Pharmaceutical Sciences, …
[43] = not given; remark: listed apart in the source
[44] = method code SF-HPLC, from DOI: 10.1021/js950346l, PMID: 9109056

Q: Which logP does the source give for `CN(C)CC/C=C1/c2ccccc2Sc2ccc(Cl)cc21` here?
A: The logP was 5.18.

Q: Which logP [1] does the source give for `CC1(C)C(C=C2CCSC2=O)C1C(=O)OCc1ccccc1` (stereo not given) here?
A: The logP was 4.02.

Q: With `CCN(CC)CCN1c2ccccc2Sc2ccccc21` as the compound, how does the logP [2] read?
A: The logP was 5.94.

Q: For `CC1COc2c(N3CCN(C)CC3)c(F)cc3c(=O)c(C(=O)O)cn1c23` (stereo not given), which logP [3] is on record?
A: Its logP is -0.05.

Q: For `CCOC(=O)[C@@]1(C)CSC(c2ccc(OCCOCCOC)cc2O)=N1`, which logD [4] is on record?
A: Its logD is 3.

Q: Which logD [5] does the source give for `CCN(CC)C(=O)Cc1c(-c2ccc(I)cc2)nc2ccc(Cl)cn12` here?
A: Its logD is 3.1.

Q: For `O=S(c1ccc(F)cc1)C1CCN(CCc2ccc(F)cc2F)CC1` (stereo not given), which logP [6] is on record?
A: Its logP is 2.67.

Q: For `CC(=O)Oc1c(C)cc(OCC(O)CNC(C)C)c(C)c1C` (stereo not given), which logP [7] is on record?
A: The logP was 1.95.

Q: With `Fc1ccc(CN2CCN(Cc3cnn4ccccc34)CC2)cc1` as the compound, how does the logP [8] read?
A: The logP was 2.8.

Q: With `Cc1[nH]cnc1CSCCNc1nc(=O)c(Cc2ccc3c(c2)OCO3)c[nH]1` as the compound, how does the logD [9] read?
A: Its logD is 2.11.

Q: For `Nc1ccc(CCN2CCN(c3cccc(C(F)(F)F)c3)CC2)cc1I`, which logD [10] is on record?
A: Its logD is 3.69.

Q: Which logP [11] does the source give for `O=S1(=O)OC(c2ccc(O)cc2)(c2ccc(O)cc2)c2ccccc21` here?
A: The logP was 3.02.

Q: With `COc1ccc(C2=CC(c3ccc(S(C)(=O)=O)cc3)C=NC2=O)cn1` (stereo not given) as the compound, how does the logP [12] read?
A: The logP was 1.7.

Q: With `COc1ccc(N(CCCC(=O)O)C(=O)c2ccc(Cl)cc2)cc1` as the compound, how does the logD [13] read?
A: Its logD is 2.7.

Q: With `CC1=C(C(=O)Nc2nc3ccccc3s2)C(c2ccccc2)NC(=S)N1` (stereo not given) as the compound, how does the logP [14] read?
A: The logP was 2.03.

Q: With `Oc1ccc(C(c2ccccc2)c2ccc(O)cc2)cc1` as the compound, how does the logP [15] read?
A: The logP was 4.3.

Q: Which logP [16] does the source give for `COc1ccc(N2CCn3c(nc4ccccc4c3=O)C2C)cc1` (stereo not given) here?
A: The logP was 1.29.

Q: Which logP [17] does the source give for `C[C@]12CCC(=O)C[C@@H]1CC[C@@H]1[C@@H]2[C@@H](F)C[C@]2(C)[C@@H](O)CC[C@@H]12` here?
A: Its logP is 3.5.

Q: With `COc1ccc(/C=C2\CCCN=C2c2cccnc2)c(OC)c1` as the compound, how does the logD [18] read?
A: The logD was 2.82.

Q: With `Cc1ncc2n1-c1ccc(Cl)cc1C(c1ccccc1F)=NC2` as the compound, how does the logD [19] read?
A: The logD was 3.

Q: For `CC(C)Cc1ccc(C(C)C(=O)OCN2C(=O)CCC2=O)cc1` (stereo not given), which logD [20] is on record?
A: Its logD is 2.62.

Q: Which logP [21] does the source give for `CC(=O)CC(c1ccc([N+](=O)[O-])cc1)c1c(O)c2ccccc2oc1=O` (stereo not given) here?
A: The logP was 1.98.

Q: For `CCc1cc(Cl)cc2[nH]c(=O)c(-c3cccc(NC)c3)c(O)c12`, which logD [22] is on record?
A: Its logD is 1.92.

Q: With `CCC(C)(CC)c1cc(NC(=O)c2c(OC)cccc2OC)on1` as the compound, how does the logP [23] read?
A: Its logP is 3.

Q: Which logP [24] does the source give for `CCCCCCCCCCCC(=O)N1CCCCCC1` here?
A: The logP was 7.3.

Q: Which logD [25] does the source give for `CNc1ccc(C=Cc2ccc(OCC(CO)CF)cc2)cc1` (stereo not given) here?
A: The logD was 2.95.

Q: Which logP [26] does the source give for `c1ccc(Oc2ccccc2-c2ccccc2)cc1` here?
A: Its logP is 5.66.

Q: With `CCCCCCCc1c(C)[nH]c2cc(OC)c(Cl)cc2c1=O` as the compound, how does the logD [27] read?
A: Its logD is 3.83.

Q: For `CC[C@H](Oc1ccccc1)C(=O)N[C@@H]1C(=O)N2[C@@H]1SC(C)(C)[C@@H]2C(=O)O`, which logP [28] is on record?
A: Its logP is 2.58.

Q: For `c1ccc2nc(-c3ccc4ccccc4n3)ccc2c1`, which logP [29] is on record?
A: Its logP is 4.31.

Q: For `O=C(NCC(O)CO)c1c(I)c(C(=O)NCC(O)CO)c(I)c(N(CCO)C(=O)CO)c1I` (stereo not given), which logD [30] is on record?
A: The logD was -2.98.

Q: For `O=C1/C(=C/c2ccccc2F)CCCc2ccccc21`, which logP [31] is on record?
A: The logP was 4.55.

Q: For `Clc1ccc(N2CCN(Cc3cnn4c(I)cccc34)CC2)cc1`, which logD [32] is on record?
A: Its logD is 2.36.

Q: With `O=C(NC12CC3CC(CC(C3)C1)C2)C(O)c1ccccc1` (stereo not given) as the compound, how does the logP [33] read?
A: Its logP is 3.09.

Q: For `CN1CCc2cc(Cl)c(O)cc2C(c2cccc3ccoc23)C1` (stereo not given), which logD [34] is on record?
A: The logD was 3.

Q: Which logD [35] does the source give for `C#CCN1C(=O)CN=C(c2ccccc2)c2cc(Cl)ccc21` here?
A: The logD was 2.87.

Q: For `COC(=O)Nc1nc2cc(C(=O)c3ccccc3)ccc2n1C(=O)OC`, which logD [36] is on record?
A: Its logD is 2.47.

Q: With `CCN1CCc2cc(S(=O)(=O)Nc3ccc(F)cc3F)cc(NC(C)=O)c21` as the compound, how does the logP [37] read?
A: The logP was 1.4.

Q: With `O=C(CCCN1CCN(c2ccccn2)CC1)c1ccc(F)cc1` as the compound, how does the logP [38] read?
A: Its logP is 3.3.

Q: With `C[C@H](c1nc2ccc(F)cc2s1)N1C(=O)C(=O)N(c2ccccc2)C1=O` as the compound, how does the logP [39] read?
A: The logP was 1.51.

Q: For `Nc1ncnc2c1ncn2C(c1ccccc1)c1ccccc1`, which logD [40] is on record?
A: The logD was 3.19.

Q: For `O=C(Nc1ccn(C2CSC(CO)O2)c(=O)n1)c1cnc2ccccc2c1` (stereo not given), which logP [41] is on record?
A: The logP was 0.87.

Q: With `C=C[C@@](C)(/C=C/c1ccc(O)cc1)CCC=C(C)C` as the compound, how does the logP [42] read?
A: The logP was 4.27.

Q: For `CCC(c1ccc(O)cc1)C(C(C)=O)c1ccc(O)cc1` (stereo not given), which logP [43] is on record?
A: The logP was 3.1.

Q: With `COc1ccc2c(c1)c(CC(=O)O)c(C)n2C(=O)c1ccc(Cl)cc1` as the compound, how does the logP [44] read?
A: The logP was 3.86.
